In patent EP0319906A2, “Novel quinoline derivatives, processes for preparation thereof and antibacterial agent containing them” (Dainippon Pharmaceutical Co., Ltd., priority 1987, dated 1989):
In brackets after ≈: the same amount, converted by molar mass. Like-named read-outs stand apart in the source and are kept apart here.

How the values were obtained:
E. coli NIHJ JC-2 = assay: In vitro antibacterial activity, twofold agar-dilution MIC; format: cell-based; details: Escherichia coli, read-out: minimum inhibitory concentrations (MIC)
Procedure: (§1) The figures in the table show minimum inhibitory concentrations (MIC) (µg/ml), calculated for free base. […] One loopful of an overnight culture of test organisms in Mueller-Hinton broth was inoculated onto 10 ml drug- containing agar layers in petri dishes. Bacterial inocula contained approximately 10⁶ colonyl-forming units. […] The MIC was defined as the lowest drug concentration which prevented visible bacterial growth.

E. coli P-5101 = assay: as above; format: cell-based; details: Escherichia coli, read-out: minimum inhibitory concentrations (MIC)
Procedure: as §1

P. aeruginosa 12 = assay: as above; format: cell-based; details: read-out: minimum inhibitory concentrations (MIC)
Procedure: as §1

S. aureus 209 JC-1 = assay: as above; format: cell-based; details: Staphylococcus aureus, read-out: minimum inhibitory concentrations (MIC)
Procedure: as §1

S. aureus No. 80 = assay: as above; format: cell-based; details: Staphylococcus aureus, read-out: minimum inhibitory concentrations (MIC)
Procedure: as §1

S. aureus Terajima = assay: as above; format: cell-based; details: Staphylococcus aureus, read-out: minimum inhibitory concentrations (MIC)
Procedure: as §1

S. epidermidis No. 8 = assay: as above; format: cell-based; details: Staphylococcus epidermidis, read-out: minimum inhibitory concentrations (MIC)
Procedure: as §1

S. marcescens S-9 = assay: as above; format: cell-based; details: Serratia marcescens, read-out: minimum inhibitory concentrations (MIC)
Procedure: as §1

S. pyogenes A65 = assay: as above; format: cell-based; details: Streptococcus pyogenes, read-out: minimum inhibitory concentrations (MIC)
Procedure: as §1

in vivo = details: mouse, po, orally given to male mice (ddY), dead mice counted after 7 days, Behrens-Kaerber method, read-out: LD₅₀
Procedure: A suspension containing each of compounds of this invention in various concentrations was orally given to male mice (ddY) at a dose of 0.1 ml per 10 g of body weight. The number of dead mice was counted after 7 days, and the value of median lethal dose (LD₅₀, mg/kg) was calculated in accordance with the Behrens-Kaerber method.

[1] = test system: C. Trachomatics G/ur 1242; assay: Antichlamydia activity, MIC in McCoy cells (inclusion bodies); format: cell-based; details: read-out: minimum inhibitory concentrations (MIC)
Procedure: (§2) The figures in the table show minimum inhibitory concentrations (MIC), (μg/ml), calculated for free base. Minimum inhibitory concentrations (MIC) were determined as follows. […] The cells were trypsinized and suspended in the same culture medium at a cell concentration of 1-2 x 10^5 cells/ml. One ml of the cell suspension was pipetted into flat-bottomed plastic tubes (14 mm in diameter) containing a cover slip (12 mm in diameter). The tubes were incubated in 5 % CO2-air at 36 °C for 20 hours. One-half ml of a chlamydial suspension (ca. 1-4 x 103 inclusion body forming units) was added into each tube, which was then centrifuged at 1500 x g for 60 minutes. The tubes were incubated for 1 hour at 36 °C. […] After further incubation at 36 °C for 40-48 hours, the cells on the cover glasses were stained with the Giemsa's solution. […] The MIC was defined as the lowest drug concentration where there were no inclusion bodies in all the cells on the cover slip.

[2] = test system: C. Trachomatics G/ur 1317; assay: as above; format: cell-based; details: read-out: minimum inhibitory concentrations (MIC)
Procedure: as §2

[3] = test system: C. Trachomatics G/ur 1448; assay: as above; format: cell-based; details: read-out: minimum inhibitory concentrations (MIC)
Procedure: as §2

C. Trachomatics G/ur 931 = assay: as above; format: cell-based; details: read-out: minimum inhibitory concentrations (MIC)
Procedure: as §2

A. laidlawii PG-8 = assay: Antimycoplasma activity, twofold agar dilution MIC; format: cell-based; details: Acholeplasma laidlawii, PG8, 48 h, read-out: minimum inhibitory concentrations (MIC)
Procedure: (§3) The figures in the table show minimum inhibitory concentrations (MIC), (μg/ml), calculated for free base. Minimum inhibitory concentrations (MIC) were determined by the twofold agar dilution method. The media used were Chanock broth and agar [PPLD broth and agar (Difco) supplemented with 20 % horse serum and 10 % fresh yeast extract]. A 2-3 day broth culture of organisms was diluted with Chanock broth to a cell density of about 10^6 cells/ml. One loopful (about […]) of the organism dilution was spotted onto 10-ml drug containing Chanock agar in petri dishes using a multiple inoculator ([…] International). […] Incubation was performed anaerobically using the […] anaerobic system (BBL) for M. buccale, M. fermentans, M. hominis, M. orale and M. salivarium, and aerobically for other Mycoplasma spp. The MIC was defined as the lowest compound concentration at which no growth of organism was detected.

M. arginini G-230 = assay: Antimycoplasma activity, twofold agar dilution MIC; format: cell-based; details: 48 h, read-out: minimum inhibitory concentrations (MIC)
Procedure: as §3

M. buccale CH-20249 = assay: Antimycoplasma activity, twofold agar dilution MIC; format: cell-based; details: 48 h, read-out: minimum inhibitory concentrations (MIC)
Procedure: as §3

M. fermentans PG-18 = assay: Antimycoplasma activity, twofold agar dilution MIC; format: cell-based; details: Mycoplasmopsis fermentans, PG18, 48 h, read-out: minimum inhibitory concentrations (MIC)
Procedure: as §3

M. hominis PG-21 = assay: Antimycoplasma activity, twofold agar dilution MIC; format: cell-based; details: Metamycoplasma hominis, PG21, 48 h, read-out: minimum inhibitory concentrations (MIC)
Procedure: as §3

M. hyorhinis BST-7 = assay: Antimycoplasma activity, twofold agar dilution MIC; format: cell-based; details: Mesomycoplasma hyorhinis, BST7, 48 h, read-out: minimum inhibitory concentrations (MIC)
Procedure: as §3

M. orale CH-19299 = assay: Antimycoplasma activity, twofold agar dilution MIC; format: cell-based; details: po, 48 h, read-out: minimum inhibitory concentrations (MIC)
Procedure: as §3

M. pneumoniae Mac = assay: Antimycoplasma activity, twofold agar dilution MIC; format: cell-based; details: Mycoplasmoides pneumoniae, 168 h, read-out: minimum inhibitory concentrations (MIC)
Procedure: as §3

M. salivarium PG-20 = assay: Antimycoplasma activity, twofold agar dilution MIC; format: cell-based; details: 48 h, read-out: minimum inhibitory concentrations (MIC)
Procedure: as §3

[4] = NIHJJC2, E. coli NIHJ JC-2, Mueller-Hinton agar, 20-hour incubation at 37 °C, calculated for free base
[5] = P5101, E. coli P-5101, Mueller-Hinton agar, 20-hour incubation at 37 °C, calculated for free base
[6] = Pseudomonas aeruginosa, P. aeruginosa 12, Mueller-Hinton agar, 20-hour incubation at 37 °C, calculated for free base
[7] = 209JC1, S. aureus 209 JC-1, Mueller-Hinton agar, 20-hour incubation at 37 °C, calculated for free base
[8] = S. aureus No. 80, Mueller-Hinton agar, 20-hour incubation at 37 °C, calculated for free base
[9] = S. aureus Terajima, Mueller-Hinton agar, 20-hour incubation at 37 °C, calculated for free base
[10] = S. epidermidis No. 8, Mueller-Hinton agar, 20-hour incubation at 37 °C, calculated for free base
[11] = S9, S. marcescens S-9, Mueller-Hinton agar, 20-hour incubation at 37 °C, calculated for free base
[12] = S. pyogenes A65, Mueller-Hinton agar, 20-hour incubation at 37 °C, calculated for free base
[13] = C. Trachomatics G/ur 1242, McCoy cells, 36 °C for 40-48 hours, calculated for free base
[14] = C. Trachomatics G/ur 1317, McCoy cells, 36 °C for 40-48 hours, calculated for free base
[15] = C. Trachomatics G/ur 1448, McCoy cells, 36 °C for 40-48 hours, calculated for free base
[16] = C. Trachomatics G/ur 931, McCoy cells, 36 °C for 40-48 hours, calculated for free base

Cc1c(F)c(N2CCNCC2)cc2c1c(=O)c(C(=O)O)cn2C1CC1 [Compound 5, 1-cyclopropyl-6-fluoro-5-methyl-7-(1-piperazinyl)-1,4-dihydro-4-oxoquinoline-3-carboxylic acid]
MIC (E. coli NIHJ JC-2; [4]): 0.0125 µg/mL (≈ 0.0362 µM) | MIC (E. coli P-5101; [5]): 0.0125 µg/mL (≈ 0.0362 µM) | MIC (P. aeruginosa 12; [6]): 0.1 µg/mL (≈ 0.29 µM) | MIC (S. aureus 209 JC-1; [7]): 0.05 µg/mL (≈ 0.145 µM) | MIC (S. aureus No. 80; [8]): 0.0125 µg/mL (≈ 0.0362 µM) | MIC (S. aureus Terajima; [9]): 0.025 µg/mL (≈ 0.0724 µM) | MIC (S. epidermidis No. 8; [10]): 0.025 µg/mL (≈ 0.0724 µM) | MIC (S. marcescens S-9; [11]): 0.2 µg/mL (≈ 0.579 µM) | MIC (S. pyogenes A65; [12]): 0.39 µg/mL (≈ 1.13 µM) | LD50 at 7 days (in vivo): > 2000 mg/kg

Cl.O=C(O)c1cn(C2CC2)c2cc(N3CCNCC3)c(F)cc2c1=O [Compound A, 1-cyclopropyl-6-fluoro-7-(1-piperazinyl)-1,4-dihydro-4-oxoquinoline-3-carboxylic acid hydrochloride]
MIC (E. coli NIHJ JC-2; NIHJJC2, 20 h): 0.0063 µg/mL | MIC (E. coli P-5101; P5101, 20 h): 0.0063 µg/mL | MIC (P. aeruginosa 12; Pseudomonas aeruginosa, 12, 20 h): 0.1 µg/mL | MIC (S. aureus 209 JC-1; 209JC1, 20 h): 0.1 µg/mL | MIC (S. aureus No. 80; NO.80, 20 h): 0.39 µg/mL | MIC (S. aureus Terajima; 20 h): 0.1 µg/mL | MIC (S. epidermidis No. 8; NO.8, 20 h): 0.1 µg/mL | MIC (S. marcescens S-9; S9, 20 h): 0.05 µg/mL | MIC (S. pyogenes A65; A65, 20 h): 0.2 µg/mL | MIC [1]: 1 µg/mL | MIC [2]: 2 µg/mL | MIC [3]: 1 µg/mL | MIC (C. Trachomatics G/ur 931): 1 µg/mL | MIC (A. laidlawii PG-8): 0.39 µg/mL | MIC (M. arginini G-230): 0.39 µg/mL | MIC (M. buccale CH-20249): 0.39 µg/mL | MIC (M. fermentans PG-18): 0.2 µg/mL | MIC (M. hominis PG-21): 1.56 µg/mL | MIC (M. hyorhinis BST-7): 0.39 µg/mL | MIC (M. orale CH-19299): 1.56 µg/mL | MIC (M. pneumoniae Mac): 0.78 µg/mL | MIC (M. salivarium PG-20): 3.13 µg/mL

O=C(O)c1cn(C2CC2)c2c(F)c(N3CCNCC3)c(F)cc2c1=O [Compound B, 1-cyclopropyl-6,8-difluoro-7-(1-piperazinyl)-1,4-dihydro-4-oxoquinoline-3-carboxylic acid, reference compound]
MIC (E. coli NIHJ JC-2; [4]): 0.0063 µg/mL (≈ 0.018 µM) | MIC (E. coli P-5101; [5]): 0.0063 µg/mL (≈ 0.018 µM) | MIC (P. aeruginosa 12; [6]): 0.1 µg/mL (≈ 0.286 µM) | MIC (S. aureus 209 JC-1; [7]): 0.1 µg/mL (≈ 0.286 µM) | MIC (S. aureus No. 80; [8]): 0.2 µg/mL (≈ 0.573 µM) | MIC (S. aureus Terajima; [9]): 0.1 µg/mL (≈ 0.286 µM) | MIC (S. epidermidis No. 8; [10]): 0.1 µg/mL (≈ 0.286 µM) | MIC (S. marcescens S-9; [11]): 0.05 µg/mL (≈ 0.143 µM) | MIC (S. pyogenes A65; [12]): 0.39 µg/mL (≈ 1.12 µM) | MIC [1, 13]: 0.39 µg/mL (≈ 1.12 µM) | MIC [2, 14]: 0.39 µg/mL (≈ 1.12 µM) | MIC [3, 15]: 0.39 µg/mL (≈ 1.12 µM) | MIC (C. Trachomatics G/ur 931; [16]): 0.39 µg/mL (≈ 1.12 µM)

Cc1c(F)c(N2CCNCC2)c(C#N)c2c1c(=O)c(C(=O)O)cn2C1CC1 [Compound D, 8-cyano-1-cyclopropyl-6-fluoro-5-methyl-7-(1-piperazinyl)-1,4-dihydro-4-oxoquinoline-3-carboxylic acid, reference compound]
MIC (E. coli NIHJ JC-2; [4]): 0.0125 µg/mL (≈ 0.0337 µM) | MIC (E. coli P-5101; [5]): 0.0125 µg/mL (≈ 0.0337 µM) | MIC (P. aeruginosa 12; [6]): 0.39 µg/mL (≈ 1.05 µM) | MIC (S. aureus 209 JC-1; [7]): 0.1 µg/mL (≈ 0.27 µM) | MIC (S. aureus No. 80; [8]): 0.1 µg/mL (≈ 0.27 µM) | MIC (S. aureus Terajima; [9]): 0.1 µg/mL (≈ 0.27 µM) | MIC (S. epidermidis No. 8; [10]): 0.1 µg/mL (≈ 0.27 µM) | MIC (S. marcescens S-9; [11]): 0.39 µg/mL (≈ 1.05 µM) | MIC (S. pyogenes A65; [12]): 1.56 µg/mL (≈ 4.21 µM) | MIC [1, 13]: 3.13 µg/mL (≈ 8.45 µM) | MIC [2, 14]: 3.13 µg/mL (≈ 8.45 µM) | MIC [3, 15]: 3.13 µg/mL (≈ 8.45 µM) | MIC (C. Trachomatics G/ur 931; [16]): 1.56 µg/mL (≈ 4.21 µM)
